According to EP1005460B1, “PROSTAGLANDIN ENDOPEROXIDE H SYNTHASE BIOSYNTHESIS INHIBITORS” (ABBOTT LABORATORIES, priority 1997, dated 1999):
Read-outs that look alike come from different tables or passages of the source.

Assays:
[1] = biological target: T1, Cox-1 (Homo sapiens, UniProt P23219); assay: Recombinant human PGHS-1 (Cox-1) enzyme assay, PGE2 by EIA; type: biochemical; parameters: made in house; host or cells: baculovirus/Sf9 insect cells (microsomes); settings: microsomes, 60 min preincubation, 10 µM arachidonic acid, read-out: RHUCX1 Cox-1 percent inhibition
Protocol: (§1) To compare the mean responses of the treatment groups, analysis of variance was applied. Percent inhibition values were determined by comparing the individual treatment mean values to the mean of the control group. Linear regression was used to estimate IC50's/ED50's in appropriate assays.
(§2) EIA reagents for prostaglandin determination were purchased from Perseptive Diagnostics, (Cambridge, MA). PGE2 levels in lavage fluids were determined after the samples were dried under nitrogen and reconstituted with assay buffer. PGE2 levels in enzyme assays or cell culture media were measured against standards prepared in the same milieu. The immunoassays were conducted as recommended by the manufacturer. The EIA was conducted in 96 well microtiter plates (Nunc Roskilde, Denmark) and optical density was measured using a microplate reader (Vmax, Molecular Devices Corp., Menlo Park, CA).
(§3) Inhibition of prostaglandin biosynthesis in vitro was evaluated using recombinant human Cox-1 (r-hu Cox1) and Cox-2 (r-hu Cox2) enzyme assays. […] The reaction was allowed to run for 2.5 minutes at room temperature prior to quenching with HCl and neutralization with NaOH. PGE2 production in the presence and absence of the drug was determined by EIA analysis. The EIA was conducted in 96 well microtiter plates (Nunc Roskilde, Denmark) and optical density was measured using a microplate reader (Vmax, Molecular Devices Corp., Menlo Park, CA). EIA reagents for prostaglandin determination were purchased from Perseptive Diagnostics (Cambridge, MA). PGE2 levels were measured against standards prepared in the same milieu. The immunoassays were conducted as recommended by the manufacturer. The compounds are designated by the Example Number. […] Values for Cox-2 inhibition that are parenthetical indicate IC50 values.

[2] = biological target: T2, Cox-2 (Homo sapiens, UniProt P35354); assay: Recombinant human PGHS-2 (Cox-2) enzyme assay, PGE2 by EIA; type: biochemical; parameters: made in house; host or cells: baculovirus/Sf9 insect cells (microsomes); settings: microsomes, 60 min preincubation, 10 µM arachidonic acid; for inhibition at 0.1 µM: at 100 nM; for inhibition at 0.1 µM / inhibition at 1 µM: read-out: RHUCX2 Cox-2 percent inhibition; for IC50: read-out: RHUCX2 Cox-2 IC50 (parenthetical values); for inhibition at 1 µM: at 1000 nM
T2 sequence (P35354 18-604): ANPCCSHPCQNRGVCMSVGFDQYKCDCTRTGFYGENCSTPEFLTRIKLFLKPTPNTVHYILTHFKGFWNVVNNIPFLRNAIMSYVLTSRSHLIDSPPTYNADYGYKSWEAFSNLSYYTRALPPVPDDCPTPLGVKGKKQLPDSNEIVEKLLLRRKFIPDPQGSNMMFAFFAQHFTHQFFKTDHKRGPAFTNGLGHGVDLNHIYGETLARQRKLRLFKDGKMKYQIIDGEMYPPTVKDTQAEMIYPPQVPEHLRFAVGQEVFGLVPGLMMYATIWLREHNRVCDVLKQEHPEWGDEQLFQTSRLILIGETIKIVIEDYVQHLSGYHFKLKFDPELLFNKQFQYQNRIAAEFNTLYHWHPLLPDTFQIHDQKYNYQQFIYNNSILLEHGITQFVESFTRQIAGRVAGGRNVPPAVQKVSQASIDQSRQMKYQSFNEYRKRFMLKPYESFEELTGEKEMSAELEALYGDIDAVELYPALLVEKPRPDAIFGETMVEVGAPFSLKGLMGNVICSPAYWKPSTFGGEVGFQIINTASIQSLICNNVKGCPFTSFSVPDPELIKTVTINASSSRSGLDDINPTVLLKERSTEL
Protocol: as §1, §2, §3

[3] = biological target: T1, Cox-1; assay: U937 cell assay, Cox-1 activity by EIA; type: cell-based; parameters: host or cells: U937 cells; settings: U937 cells
Protocol: as §1, §2
(§4) Human amnionic WISH cells were grown to 80% confluence in 48 well plates. Following removal of the growth medium and two washings with Gey's Balanced Salt Solution, 5 ng IL-1 β/ml (UBI, Lake Placid, NY) was added to the cells with or without test compound in DMSO (0.01% v/v) in Neuman-Tytell Serumless Medium (GIBCO, Grand Island, NY). Following an 18 hour incubation to allow for the maximal induction of PGHS-2, the conditioned medium was removed and assayed for PGE2 activity by EIA analysis as described above.
(§5) U937 (ATCC, Rockville, MD) cells were grown in a similar fashion to the WISH cells. After incubation, the conditioned medium was removed and assayed for Cox-1 activity by EIA analysis as described above. U937 values indicate percent inhibition at the particular micromolar dose level while parenthetical values indicate IC50 values. Wish cell values indicate Cox-2 pecent inhibition at the particular micromolar dose level.

[4] = system: prostaglandin biosynthesis; assay: Rat carrageenan pleural inflammation model (CIP); type: in vivo, Sprague-Dawley rats; settings: 10 milligrams per kilogram body weight, oral, 30 minutes before intrapleural carrageenan; lavage after four hours
Protocol: as §1, §2
Pleural inflammation was induced in male adrenalectomized Sprague-Dawley rats following the method of Vinegar et al., Fed. Proc. 1976, 35, 2447-2456. Animals were orally dosed with experimental compounds, in 0.2% HPMC, 30 minutes prior to the intrapleural injection of 2% lambda carrageenan (Sigma Chemical Co., St. Louis MO). Four hours later the animals were euthanized and the pleural cavities lavaged with ice cold saline. […] Eicosanoids were determined by EIA as described above. […]

[5] = biological target: T2, Cox-2; assay: IL-1β induced PGE2 production in WISH cells; type: cell-based; parameters: endogenous in cells; host or cells: human amnionic WISH cells induced with IL-1β
Protocol: as §1, §2, §4
as §5, with “Wish cell values indicate Cox-2 pecent inhibition at the particular micromolar dose level.” left out

[6] = U-937, read-out: U937 percent inhibition

T1 sequence (P23219 24-599): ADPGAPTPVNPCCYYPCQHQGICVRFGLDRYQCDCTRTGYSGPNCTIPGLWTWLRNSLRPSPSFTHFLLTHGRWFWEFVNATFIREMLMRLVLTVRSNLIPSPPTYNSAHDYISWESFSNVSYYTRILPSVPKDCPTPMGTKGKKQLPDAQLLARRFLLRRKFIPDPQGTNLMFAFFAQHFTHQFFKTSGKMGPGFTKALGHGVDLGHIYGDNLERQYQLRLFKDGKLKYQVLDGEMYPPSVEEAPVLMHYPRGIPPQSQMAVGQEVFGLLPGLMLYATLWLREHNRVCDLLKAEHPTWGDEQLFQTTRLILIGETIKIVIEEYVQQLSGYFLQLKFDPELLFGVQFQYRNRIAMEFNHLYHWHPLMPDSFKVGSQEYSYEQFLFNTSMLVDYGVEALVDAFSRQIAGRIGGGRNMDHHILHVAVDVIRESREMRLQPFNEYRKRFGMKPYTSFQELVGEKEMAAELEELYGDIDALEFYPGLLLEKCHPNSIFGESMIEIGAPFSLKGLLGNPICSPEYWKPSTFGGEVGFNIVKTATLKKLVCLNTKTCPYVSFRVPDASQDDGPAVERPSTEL

SMILES | inhibition at 100 µM [1] [%] | inhibition at 0.1 µM [2] [%] | inhibition at 10 µM [3, 6] [%] | IC50 [2] [nM] | also measured
CS(=O)(=O)c1ccc(-c2cc(=O)n(C3CCCC3)nc2-c2ccc(F)cc2)cc1 [Example 25, 2-Cyclopentyl-5-(4-methylsulfonylphenyl)-6-(4-fluorophenyl)-3(2H)-pyridazinone] | 7 | 42 |  |  | 
CS(=O)(=O)c1ccc(-c2cc(=O)n(CC3CCC3)nc2-c2ccc(F)cc2)cc1 [Example 20, 2-(Cyclobutylmethyl)-5-(4-methylsulfonylphenyl)-6-(4-fluorophenyl)-3(2H)-pyridazinone] |  |  | 60 |  | 
CCCCn1nc(-c2ccc(F)cc2)c(-c2ccc(S(C)(=O)=O)cc2)cc1=O [Example 11, 2-(n-Butyl)-5-(4-methylsulfonylphenyl)-6-(4-fluorophenyl)-3(2H)-pyridazinone] | 19 | 51 |  |  | 
CS(=O)(=O)c1ccc(-c2cc(=O)n(C3CCCCC3)nc2-c2ccc(F)cc2)cc1 [Example 18, 2-Cyclohexyl-5-(4-methylsulfonylphenyl)-6-(4-fluorophenyl)-3(2H)-pyridazinone] | 16 | 49 |  |  | 
CS(=O)(=O)c1ccc(-c2cc(=O)n(Cc3ccccc3)nc2-c2ccc(F)cc2)cc1 [Example 7, 2-Benzyl-5-(4-methylsulfonylphenyl)-6-(4-fluorophenyl)-3(2H)-pyridazinone] | 4 |  |  | 20 | CIP Inh @10mpk [4]: 22%; IC50 ([3]; read-out: U937 IC50 (parenthetical values)): 870 nM
CC#CCn1nc(-c2ccc(F)cc2)c(-c2ccc(S(C)(=O)=O)cc2)cc1=O [Example 19, 2-(2-Butyn-1-yl)-5-(4-methylsulfonylphenyl)-6-(4-fluorophenyl)-3(2H)-pyridazinone] | 3 |  |  |  | inhibition at 1 µM [2]: 66%
CS(=O)(=O)c1ccc(-c2cc(=O)n(CC3CCCC3)nc2-c2ccc(F)cc2)cc1 [Example 24, 2-Cyclopentylmethyl-5-(4-methylsulfonylphenyl)-6-(4-fluorophenyl)-3(2H)-pyridazinone] | 23 | 87 |  |  | 
CC(c1ccc(F)cc1)n1nc(-c2ccc(F)cc2)c(-c2ccc(S(C)(=O)=O)cc2)cc1=O (stereo not drawn) [Example 12, 2-(4-Fluoro-α-methylbenzyl)-5-(4-methylsulfonylphenyl)-6-(4-fluorophenyl)-3(2H)-pyridazinone] | 8 |  |  | 740 | 
CS(=O)(=O)c1ccc(-c2cc(=O)n(CC3CC3)nc2-c2ccc(F)cc2)cc1 [Example 23, 2-(Cyclopropylmethyl)-5-(4-methylsulfonylphenyl)-6-(4-fluorophenyl)-3(2H)-pyridazinone] | 24 |  | 30 | 250 | CIP Inh @10mpk [4]: 41%; Wish Cox-2 percent inhibition [5]: 62 @ 1%
CCCCCn1nc(-c2ccc(F)cc2)c(-c2ccc(S(C)(=O)=O)cc2)cc1=O [Example 14, 2-(n-Pentyl)-5-(4-methylsulfonylphenyl)-6-(4-fluorophenyl)-3(2H)-pyridazinone] | 23 | 66 |  |  | inhibition at 1 µM ([3]; U-937, at 1 µM, read-out: U937 percent inhibition): 42%; Wish Cox-2 percent inhibition ([5]; at 0.00001 (head:)): 34 @ 0.00001%
CS(=O)(=O)c1ccc(-c2cc(=O)n(Cc3ccc(F)cc3)nc2-c2ccc(F)cc2)cc1 [Example 10, 2-(4-Fluorobenzyl)-5-(4-methylsulfonylphenyl)-6-(4-fluorophenyl)-3(2H)-pyridazinone] | 2 | 65 | 62 |  | 
C#CCn1nc(-c2ccc(F)cc2)c(-c2ccc(S(C)(=O)=O)cc2)cc1=O [Example 17, 2-Propargyl-5-(4-methylsulfonylphenyl)-6-(4-fluorophenyl)-3(2H)-pyridazinone] | 0 |  | 41 | 850 | Wish Cox-2 percent inhibition [5]: 54 @ 1%
CS(=O)(=O)c1ccc(-c2cc(=O)n(CC(F)(F)F)nc2-c2ccc(F)cc2)cc1 [Example 22, 2-(2,2,2-Trifluoroethyl)-5-(4-methylsulfonylphenyl)-6-(4-fluorophenyl)-3(2H)-pyridazinone] | 0 |  |  |  | inhibition at 1 µM [2]: 46%
CC(C)=CCn1nc(-c2ccc(F)cc2)c(-c2ccc(S(C)(=O)=O)cc2)cc1=O [Example 21, 2-(3-Methylbuten-2-yl)-5-(4-methylsulfonylphenyl)-6-(4-fluorophenyl)-3(2H)-pyridazinone] | 62 | 92 | 80 |  | 
CS(=O)(=O)c1ccc(-c2cc(=O)n(CC3CCCCC3)nc2-c2ccc(F)cc2)cc1 [Example 15, 2-Cyclohexylmethyl-5-(4-methylsulfonylphenyl)-6-(4-fluorophenyl)-3(2H)-pyridazinone] | 52 |  |  | 5 | inhibition at 0.01 µM ([3]; U-937, at 0.01 µM, read-out: U937 percent inhibition): 33%; Wish Cox-2 percent inhibition ([5]; at 0.001 (head:)): 43 @ 0.001%
